Experimental data as given in publication PMC12645998, “Optimization of VE607 to generate analogs with improved neutralization activities against SARS-CoV-2 variants” (Journal of Virology, 2025).
Read-outs that look alike come from different tables or passages of the source.

What was measured:
[1] = test system: SARS-CoV-2 BA.4/5 Spike pseudovirus; assay: organism not typed; assay type: cell-based; conditions: read-out: IC50 BA.4/5
[2] = test system: SARS-CoV-2 XBB.1.16 Spike pseudovirus; assay: organism not typed; assay type: cell-based; conditions: read-out: IC50 XBB.1.16
[3] = test system: pseudoviral particles carrying SARS-CoV-1 S; assay: microbe, parasite or virus in culture; assay type: cell-based
[4] = test system: pseudoviral particles carrying VSV-G; assay: microbe, parasite or virus in culture; assay type: cell-based; conditions: Vesicular stomatitis virus
[5] = test system: SARS-CoV-2 HK.3 Spike pseudovirus; assay: organism not typed; assay type: cell-based; conditions: read-out: IC50 HK.3
[6] = test system: pseudoviral particles bearing the Spike glycoprotein from SARS-CoV-2; assay: microbe, parasite or virus in culture; assay type: cell-based; conditions: pseudovirus, 293T-ACE2 cells, compounds up to 100 µM
[7] = test system: SARS-CoV-2 KP.3.1.1 Spike pseudovirus; assay: organism not typed; assay type: cell-based; conditions: read-out: IC50 KP.3.1.1
[8] = test system: SARS-CoV-2 BA.2.86 Spike pseudovirus; assay: organism not typed; assay type: cell-based; conditions: read-out: IC50 BA.2.86
[9] = test system: SARS-CoV-2 B.1.1.7 Spike pseudovirus; assay: organism not typed; assay type: cell-based; conditions: read-out: IC50 B.1.1.7
[10] = test system: SARS-CoV-2 EG.5.1 Spike pseudovirus; assay: organism not typed; assay type: cell-based; conditions: read-out: IC50 EG.5.1
[11] = test system: SARS-CoV-2 XBB.1.5 Spike pseudovirus; assay: organism not typed; assay type: cell-based; conditions: read-out: IC50 XBB.1.5
[12] = test system: SARS-CoV-2 JN.1 Spike pseudovirus; assay: organism not typed; assay type: cell-based; conditions: read-out: IC50 JN.1
[13] = test system: authentic SARS-CoV-2 XBB.1; assay: microbe, parasite or virus in culture; assay type: cell-based; conditions: Severe acute respiratory syndrome coronavirus 2, Vero C1008, read-out: IC50 authentic SARS-CoV-2 XBB.1
[14] = test system: SARS-CoV-2 XEC Spike pseudovirus; assay: organism not typed; assay type: cell-based; conditions: read-out: IC50 XEC
[15] = Solubility in phosphate-buffered saline
[16] = Severe acute respiratory syndrome coronavirus, 293T/ACE2, read-out: IC50 SARS-CoV-1
[17] = 293T/ACE2, read-out: IC50 VSV-G
[18] = Severe acute respiratory syndrome coronavirus 2, 293T/ACE2, read-out: IC50 SARS-CoV-2, Table 1

SMILES	IC50 [3, 16] [µM]	IC50 [4, 17] [µM]	IC50 [6, 18] [µM]	further results
O[C@@H](COc1cccc(OC[C@H](O)CN2CCCCC2)c1)CN1CCCCC1 [(R,R)-VE607, reference compound]	0.8	> 100	0.98	IC50 [1]: 5.78 µM; IC50 [2]: 2.03 µM; IC50 ([3]; read-out: IC50 SARS-CoV-1): 0.89 µM; IC50 ([4]; 293T/ACE2, read-out: IC50 VSVG): > 100 µM; IC50 [5]: 3.88 µM; IC50 [7]: 4.68 µM; IC50 [8]: 2.64 µM; IC50 [9]: 1.17 µM; IC50 [10]: 1.31 µM; IC50 [11]: 0.99 µM; IC50 [12]: 6.4 µM; IC50 [13]: 58.6 µM; IC50 [14]: 3.9 µM
CN(C)C[C@@H](O)COc1cccc(OC[C@H](O)CN(C)C)c1 [Compound 15]	2.54	70.7	1.64	
O[C@@H](COc1cccc(OC[C@H](O)CN2CCOCC2)c1)CN1CCOCC1 [Compound 16]	> 100	> 100	> 100	
CN1CCN(C[C@@H](O)COc2cccc(OC[C@H](O)CN3CCN(C)CC3)c2)CC1 [Compound 17]	19.9	74.9	1.76	
Cc1cccc(N2CCN(C[C@@H](O)COc3cccc(OC[C@H](O)CN4CCN(c5cccc(C)c5)CC4)c3)CC2)c1 [Compound 18]				Solubility in phosphate-buffered saline (PBS) [15]: b Insoluble in phosphate-buffered saline (PBS).
O[C@@H](COc1cccc(OC[C@H](O)CN2CCC(O)(c3ccc(Cl)cc3)CC2)c1)CN1CCC(O)(c2ccc(Cl)cc2)CC1 [Compound 19]	1.91	1.35	0.52	
CCN(C)C[C@@H](O)COc1cccc(OC[C@H](O)CN(C)CC)c1 [Compound 20]	0.57	> 100	1.18	
C=CCNC[C@@H](O)COc1cccc(OC[C@H](O)CNCC=C)c1 [Compound 21]	41.1	> 100	47.9	
COc1ccc(CNC[C@@H](O)COc2cccc(OC[C@H](O)CNCc3ccc(OC)cc3)c2)cc1 [Compound 22]	1.85	2.85	0.57	
O[C@H](CNCc1ccccc1OC(F)(F)F)COc1cccc(OC[C@H](O)CNCc2ccccc2OC(F)(F)F)c1 [Compound 23]				Solubility in phosphate-buffered saline (PBS) [15]: b Insoluble in phosphate-buffered saline (PBS).
O[C@H](CNC1CCOCC1)COc1cccc(OC[C@H](O)CNC2CCOCC2)c1 [Compound 24]	> 100	1.38	0.38	
CNC[C@@H](O)COc1cccc(OC[C@H](O)CNC)c1 [Compound 25]	0.45	2.69	> 100	
O[C@@H](COc1cc(Br)cc(OC[C@H](O)CN2CCCCC2)c1)CN1CCCCC1 [Compound 26]	0.381	2.39	0.44	IC50 ([6]; read-out: IC50 SARS-CoV-2, Table 1): 0.443 µM
CCN(CC)C[C@@H](O)COc1cc(Br)cc(OC[C@H](O)CN(CC)CC)c1 [Compound 28]	17.5	> 100	1.79	
O[C@@H](COc1cc(Br)cc(OC[C@H](O)CN2CCOCC2)c1)CN1CCOCC1 [Compound 29]	30.5	> 100	2.65	
Cc1cccc(N2CCN(C[C@@H](O)COc3cc(Br)cc(OC[C@H](O)CN4CCN(c5cccc(C)c5)CC4)c3)CC2)c1 [Compound 31]				Solubility in phosphate-buffered saline (PBS) [15]: b Insoluble in phosphate-buffered saline (PBS).
O[C@@H](COc1cc(Br)cc(OC[C@H](O)CN2CCC(O)(c3ccc(Cl)cc3)CC2)c1)CN1CCC(O)(c2ccc(Cl)cc2)CC1 [Compound 32]				Solubility in phosphate-buffered saline (PBS) [15]: b Insoluble in phosphate-buffered saline (PBS).
O[C@H](CNCc1ccccc1)COc1cc(Br)cc(OC[C@H](O)CNCc2ccccc2)c1 [Compound 34]	0.34	4.71	0.49	
C=CCNC[C@@H](O)COc1cc(Br)cc(OC[C@H](O)CNCC=C)c1 [Compound 35]	0.62	26.4	0.7	
CC(C)CNC[C@@H](O)COc1cc(Br)cc(OC[C@H](O)CNCC(C)C)c1 [Compound 36]	0.22	5.05	0.32	
O[C@H](CNCc1ccncc1)COc1cc(Br)cc(OC[C@H](O)CNCc2ccncc2)c1 [Compound 37]	1.29	3.89	1.37	
COc1ccc(CNC[C@@H](O)COc2cc(Br)cc(OC[C@H](O)CNCc3ccc(OC)cc3)c2)cc1 [Compound 38]	0.66	4.09	1.03	
O[C@H](CNCc1ccc(OC(F)(F)F)cc1)COc1cc(Br)cc(OC[C@H](O)CNCc2ccc(OC(F)(F)F)cc2)c1 [Compound 39]				Solubility in phosphate-buffered saline (PBS) [15]: b Insoluble in phosphate-buffered saline (PBS).
O[C@H](CNC1CCOCC1)COc1cc(Br)cc(OC[C@H](O)CNC2CCOCC2)c1 [Compound 40]	0.6	> 100	3.63	
CNC[C@@H](O)COc1cc(Br)cc(OC[C@H](O)CNC)c1 [Compound 41]	0.31	> 100	1.17	

SMILES	IC50 [3, 16] [µM]	IC50 [4, 17] [µM]	IC50 [6, 18] [µM]	further results
O[C@@H](COc1ccccc1)CN1CCCCC1 [Compound 42]	0.912	> 100	1.35	
CNC[C@@H](O)COc1ccccc1 [Compound 43]	62.6	> 100	> 100	
CC(C)CNC[C@@H](O)COc1ccccc1 [Compound 44]	5.95	> 100	> 100	
CN(C)C[C@@H](O)COc1ccccc1 [Compound 45]	13.9	> 100	> 100	
CCN(C)C[C@@H](O)COc1ccccc1 [Compound 46]	> 100	> 100	> 100	
CCN(CC)C[C@@H](O)COc1ccccc1 [Compound 47]	> 100	> 100	> 100	
CN1CCN(C[C@@H](O)COc2ccccc2)CC1 [Compound 48]	> 100	> 100	> 100	
CNC[C@@H](O)COc1cccc(Br)c1 [Compound 49]	> 100	> 100	> 100	
CC(C)CNC[C@@H](O)COc1cccc(Br)c1 [Compound 50]	> 100	> 100	> 100	
CN(C)C[C@@H](O)COc1cccc(Br)c1 [Compound 51]	17.3	> 100	> 100	
CCN(C)C[C@@H](O)COc1cccc(Br)c1 [Compound 52]	51.8	> 100	> 100	
CN1CCN(C[C@@H](O)COc2cccc(Br)c2)CC1 [Compound 53]	> 100	> 100	> 100	
CNC[C@@H](O)COc1cccc(F)c1 [Compound 54]	55	> 100	> 100	
CC(C)CNC[C@@H](O)COc1cccc(F)c1 [Compound 55]	> 100	> 100	> 100	
CN(C)C[C@@H](O)COc1cccc(F)c1 [Compound 56]	19.5	> 100	> 100	
CCN(C)C[C@@H](O)COc1cccc(F)c1 [Compound 57]	6.17	> 100	> 100	
CCN(CC)C[C@@H](O)COc1cccc(F)c1 [Compound 58]	> 100	> 100	> 100	
CN1CCN(C[C@@H](O)COc2cccc(F)c2)CC1 [Compound 59]	> 100	> 100	> 100	
CNC[C@@H](O)COc1cccc(C(C)(C)C)c1 [Compound 60]	45.5	> 100	> 100	
CC(C)CNC[C@@H](O)COc1cccc(C(C)(C)C)c1 [Compound 61]	73.7	> 100	> 100	
CN(C)C[C@@H](O)COc1cccc(C(C)(C)C)c1 [Compound 62]	0.934	> 100	84.7	
CCN(C)C[C@@H](O)COc1cccc(C(C)(C)C)c1 [Compound 63]	4.66	> 100	> 100	
CCN(CC)C[C@@H](O)COc1cccc(C(C)(C)C)c1 [Compound 64]	57.4	> 100	> 100	
CN1CCN(C[C@@H](O)COc2cccc(C(C)(C)C)c2)CC1 [Compound 65]	22	> 100	45.7	
OC(COc1cccc(OCC(O)CN2CCCCC2)c1)CN1CCCCC1 (stereo not shown) [VE607]	0.74	> 100	2.66	
